This passage reports inhibition results from patent US6251893A, “Bicyclic piperidine and piperazine compounds having 5-HT6 receptor affinity” (NPS Allelix Corp., priority 1998, dated 2001).

Experiment [1] has as its target human 5HT6 receptor (Homo sapiens, UniProt P50406). Put plainly: Binding affinity for the 5-HT6 receptor (3H-LSD displacement). Also on record: expressed in transfected cells. To be noted: 100 nM test compound; 3H-LSD (2 nM); 60 minute incubation at 37° C; read-out: percent inhibition of radioligand binding for the 5-HT6 receptor. As for the experimental part:
Binding Affinity for the 5-HT6 Receptor
The assay protocol generally entailed the incubation of membranes prepared from cells expressing the 5-HT6 receptor with ^3 H-LSD (2 nM). Increasing levels of the test compound were incubated with the radioligand and the membrane homogenates prepared from the recombinant cells. After a 60 minute incubation at 37° C., the incubation was terminated by vacuum filtration. The filters were washed with buffer and the filters were counted for radioactivity using liquid scintillation spectrometry. […] Concentrations ranging from 10^-11 M to 10^-5 M of the test compound were evaluated. […] Affinity for the 5-HT6 receptor is expressed as the amount (in percent) of binding of the radioligand that is inhibited in the presence of 100 nM of test compound. A greater percent inhibition indicates greater affinity for the 5-HT6 receptor.

In experiment [2] the target is 5-HT7 receptor (Homo sapiens, UniProt P34969). The experiment in a line: Binding to 5-HT7 receptor (selectivity). Set-up: dose or concentration left out as unconfirmed. Particulars: selectivity versus 5-HT6; read-out: percent inhibition for the 5-HT7 receptor.
5-HT7 receptor, sequence (P34969 whole entry): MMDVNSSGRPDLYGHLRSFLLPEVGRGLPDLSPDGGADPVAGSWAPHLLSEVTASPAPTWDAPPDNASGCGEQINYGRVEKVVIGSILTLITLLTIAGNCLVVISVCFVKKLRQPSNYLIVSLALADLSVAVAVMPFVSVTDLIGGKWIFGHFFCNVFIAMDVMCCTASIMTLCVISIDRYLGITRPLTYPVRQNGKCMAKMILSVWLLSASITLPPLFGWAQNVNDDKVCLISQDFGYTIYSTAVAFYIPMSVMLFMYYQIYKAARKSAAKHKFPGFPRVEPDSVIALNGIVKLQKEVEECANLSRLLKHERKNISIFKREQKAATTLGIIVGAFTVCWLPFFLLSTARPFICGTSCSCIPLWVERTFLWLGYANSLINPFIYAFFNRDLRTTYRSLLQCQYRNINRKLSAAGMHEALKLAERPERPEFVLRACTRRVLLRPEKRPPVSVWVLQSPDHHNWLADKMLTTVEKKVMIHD
For experiment [3], the target named is T1, 5HT2C receptor (Homo sapiens, UniProt P28335).
T1 sequence (P28335 33-458): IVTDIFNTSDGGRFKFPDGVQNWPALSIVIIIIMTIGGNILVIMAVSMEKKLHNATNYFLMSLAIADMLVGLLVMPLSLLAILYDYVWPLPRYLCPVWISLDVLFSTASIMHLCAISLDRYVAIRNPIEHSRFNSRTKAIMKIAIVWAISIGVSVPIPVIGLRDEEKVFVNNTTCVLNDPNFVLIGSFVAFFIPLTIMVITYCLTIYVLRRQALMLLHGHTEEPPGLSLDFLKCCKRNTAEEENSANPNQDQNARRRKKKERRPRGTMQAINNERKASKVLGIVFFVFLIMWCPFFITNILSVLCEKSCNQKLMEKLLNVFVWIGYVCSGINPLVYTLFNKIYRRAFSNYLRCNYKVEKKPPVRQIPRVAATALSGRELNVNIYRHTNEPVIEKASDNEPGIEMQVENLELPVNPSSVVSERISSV
The experiment in a line: Binding to 5HT2C receptor (selectivity). Particulars: selectivity versus 5-HT6; read-out: percent inhibition for the 5HT2C receptor.

Experiment [4] deals with 5-HT2A receptor (Homo sapiens, UniProt P28223). Put plainly: Binding to 5-HT2A receptor (selectivity). To be noted: selectivity versus 5-HT6; read-out: percent inhibition for the 5-HT2A receptor. Also on record: dose or concentration left out as unconfirmed.
5-HT2A receptor, sequence (P28223 whole entry): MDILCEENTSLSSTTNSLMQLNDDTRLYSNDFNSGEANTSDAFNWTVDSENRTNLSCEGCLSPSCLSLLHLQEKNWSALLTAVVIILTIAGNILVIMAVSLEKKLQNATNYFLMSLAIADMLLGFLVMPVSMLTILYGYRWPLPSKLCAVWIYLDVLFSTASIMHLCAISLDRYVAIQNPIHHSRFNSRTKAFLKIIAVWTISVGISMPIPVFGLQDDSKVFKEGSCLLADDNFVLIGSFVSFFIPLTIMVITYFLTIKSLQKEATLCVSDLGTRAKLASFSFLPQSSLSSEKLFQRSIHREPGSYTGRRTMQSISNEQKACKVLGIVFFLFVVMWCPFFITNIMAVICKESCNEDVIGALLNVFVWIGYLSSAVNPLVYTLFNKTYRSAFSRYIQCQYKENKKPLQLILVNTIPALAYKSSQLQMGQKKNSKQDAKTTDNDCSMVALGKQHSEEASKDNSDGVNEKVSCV

Structures are written as SMILES.

Usually inhibition stands for the drop in the measured response relative to a control, in per cent.

human 5HT6 receptor, sequence (P50406 whole entry): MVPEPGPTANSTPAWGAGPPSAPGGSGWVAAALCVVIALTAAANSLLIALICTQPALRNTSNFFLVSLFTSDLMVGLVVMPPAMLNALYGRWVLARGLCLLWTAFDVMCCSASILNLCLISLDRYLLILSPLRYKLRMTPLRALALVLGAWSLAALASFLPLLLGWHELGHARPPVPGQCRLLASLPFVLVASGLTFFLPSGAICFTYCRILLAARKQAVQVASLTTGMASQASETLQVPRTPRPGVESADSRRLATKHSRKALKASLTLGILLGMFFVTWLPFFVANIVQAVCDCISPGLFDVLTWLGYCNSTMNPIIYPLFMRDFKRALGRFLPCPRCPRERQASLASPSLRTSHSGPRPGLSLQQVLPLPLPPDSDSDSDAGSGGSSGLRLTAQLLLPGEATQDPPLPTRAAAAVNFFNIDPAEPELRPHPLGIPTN

On to `O=S(=O)(c1ccc(Cl)cc1)n1cc(C2=CCN3CCCC3C2)c2cc(F)ccc21` (racemic) [Example 6ii, 1-(4-Chlorophenylsulfonyl)-5-fluoro-3-[(8a-R,S)-1,2,3,5,8,8a-hexahydro-7-indolizinyl]indole], for which the inhibition at 0.1 µM in experiment [1] is above 80%; in experiment [3], below 20%. Moreover, the inhibition in experiment [2] and in experiment [4] was below 20% throughout.
On to `Cc1ccc(S(=O)(=O)n2nc(N3CCN4CCCCC4C3)c3ccccc32)cc1` (racemic) [Example 7b, 3-[(6-R,S)-1,4-Diaza[4.4. 0]bicyclodecan-4-yl]-1-(4-methylphenylsulfonyl)indazole], for which, in experiment [1], the inhibition at 0.1 µM is above 80%.
`O=S(=O)(c1cccc2ccccc12)n1cc(N2CCN3CCCCC3C2)c2ccccc21` (racemic) [Example 6m, 3-[(6-R,S)-1,4-Diaza[4.4. 0]bicyclodecan-4-yl]-1-(1-naphthalenesulfonyl)indole]: the inhibition at 0.1 µM was above 80% in experiment [1] and below 20% in experiment [3]. Besides, the inhibition in experiment [2] and in experiment [4] was below 20% in each case.
`CC(C)(C)c1ccc(S(=O)(=O)n2cc(C3=CCN4CCCC4C3)c3cc(F)ccc32)cc1` (racemic) [Example 6gg, 1-(4-t-Butylphenylsulfonyl)-5-fluoro-3-[(8a-R,S)-1,2,3,5,8,8a-hexahydro-7-indolizinyl]indole]: the inhibition at 0.1 µM in experiment [1] is above 80%; in experiment [3] it was below 20%. Further, the inhibition in experiment [2] and in experiment [4] was below 20% each time.
For the compound `Cc1ccc(S(=O)(=O)n2cc(C3=CCN4CCCC4C3)c3cc(F)ccc32)cc1` (racemic) [Example 6dd, 5-Fluoro-3-[(8a-R,S)-1,2,3,5,8,8a-hexahydro-7-indolizinyl]-1-(4-methylphenylsulfonyl)indole], the inhibition at 0.1 µM in experiment [1] was above 80%; in experiment [3], below 20%. Also, the inhibition in experiment [2] and in experiment [4] was below 20% each time.
As for `O=S(=O)(c1cc(Cl)ccc1Cl)n1cc(C2=CCN3CCCC3C2)c2cc(F)ccc21` (racemic) [Example 6hh, 1-(2,5-Dichlorophenylsulfonyl)-5-fluoro-3-[(8a-R,S)-1,2,3,5,8,8a-hexahydro-7-indolizinyl]indole], the inhibition at 0.1 µM in experiment [1] is above 80%; in experiment [3], below 20%. The inhibition in experiment [2] and in experiment [4] was below 20% throughout.
As to `Fc1ccc2c(c1)c(C1CCN3CCCC3C1)cn2Cc1ccccc1` (single isomer, unassigned; isomer i) [Example 10h, 1-Benzyl-5-fluoro-3-[(7R or 7S)(8a-R,S)-octahydrohydro-7-indolizinyl]indole, Isomer I], in experiment [1], the inhibition at 0.1 µM is above 80%.
As for `O=S(=O)(c1ccc(Br)cc1)n1cc(N2CCN3CCCC3C2)c2ccccc21` (racemic) [Example 6c, 1-(4-Bromophenylsulfonyl)-3-[(6-R,S)-1,4-diaza[4.3. 0]bicyclonon-4-yl]indole], the inhibition at 0.1 µM in experiment [1] is above 80%; in experiment [3], below 20%. In addition, the inhibition in experiment [2] and in experiment [4] was below 20% throughout.
Take `O=S(=O)(c1ccc2ccccc2c1)n1cc(N2CCN3CCCC3C2)c2ccccc21` (racemic) [Example 6a, 3-[(6-R,S)-1,4-Diaza[4.3. 0]bicyclonon-4-yl]-1-(2-naphthalenesulfonyl)indole]: the inhibition at 0.1 µM is above 80% in experiment [1] and below 20% in experiment [3]. Moreover, the inhibition in experiment [2] and in experiment [4] was below 20% in each case.
In the case of `O=S(=O)(c1ccc(Cl)cc1)n1cc(N2CCN3CCCCC3C2)c2ccccc21` (racemic) [Example 6p, 1-(4-Chlorophenylsulfonyl)-3-[(6-R,S)-1,4-diaza[4.4. 0]bicyclodecan-4-yl]indole], the inhibition at 0.1 µM is above 80% in experiment [1] and below 20% in experiment [3]. The inhibition in experiment [2] and in experiment [4] was below 20% each time.
Regarding `Cc1cccc(S(=O)(=O)n2cc(C3CCN4CCCC4C3)c3cc(F)ccc32)c1` (single isomer, unassigned; isomer i) [Example 10k, 5-Fluoro-1-(3-methylphenylsulfonyl)-3-[(7R or 7S)(8a-R,S)octahydrohydro-7-indolizinyl]lindole, Isomer I], in experiment [1], the inhibition at 0.1 µM was above 80%.
For the compound `O=S(=O)(c1ccccc1)n1cc(C2=CCN3CCCC3C2)c2cc(OC3CCCCC3)ccc21` (racemic) [Example 10i, 5-Cyclohexyloxy-3-[(8a-R,S)-1,2,3,5,8,8a-hexahydrohydro-7-indolizinyl]-1-phenylsulfonylindole], the inhibition at 0.1 µM in experiment [1] is above 80%.
In the case of `CC(C)(C)c1ccc(S(=O)(=O)n2cc(N3CCN4CCCC4C3)c3ccccc32)cc1` (racemic) [Example 6d, 1-(4-t-Butylphenylsulfonyl)-3-[(6-R,S)-1,4-diaza[4.3. 0]bicyclonon-4-yl]indole], the values for the inhibition at 0.1 µM in experiment [1] and in experiment [3] were above 80% and below 20%, respectively. The inhibition in experiment [2] and in experiment [4] was below 20% each time.
As to `O=S(=O)(c1ccc2ccccc2c1)n1cc(C2=CCN3CCCC3C2)c2cc(F)cc(F)c21` (racemic) [Example 6ll, 5,7-Difluoro-3-[(8a-R,S)-1,2,3,5,8,8a-hexahydro-7-indolizinyl]-2-naphthalenesulfonylindole], the inhibition at 0.1 µM in experiment [1] was above 80%; in experiment [3], below 20%. The inhibition in experiment [2] and in experiment [4] was below 20% each time.
On to `O=S(=O)(c1ccc(F)cc1)n1cc(C2=CCN3CCCC3C2)c2cc(F)ccc21` (racemic) [Example 6aa, 5-Fluoro-1-(4-fluorophenylsulfonyl)-3-[(8a-R,S)-1,2,3,5,8,8a-hexahydro-7-indolizinyl]indole], for which the inhibition at 0.1 µM is above 80% in experiment [1] and below 20% in experiment [3]. In addition, the inhibition in experiment [2] and in experiment [4] was below 20% throughout.
As to `Cc1ccc(S(=O)(=O)n2cc(N3CCN4CCCCC4C3)c3ccccc32)cc1` (racemic) [Example 6v, 3-[(6-R,S)-1,4-Diaza[4.4. 0]bicyclodecan-4-yl]-1-(4-methylphenylsulfonyl)indole], the inhibition at 0.1 µM in experiment [1] is above 80%.
As for `O=S(=O)(c1cc(Cl)ccc1Cl)n1cc(N2CCN3CCCC3C2)c2ccccc21` (racemic) [Example 6h, 3-[(6-R,S)-1,4-Diaza[4.3. 0]bicyclonon-4-yl]-1-(2,5-dichlorophenylsulfonyl)indole], the inhibition at 0.1 µM in experiment [1] is above 80%.
Consider `O=S(=O)(c1ccccc1Br)n1cc(N2CCN3CCCC3C2)c2ccccc21` (racemic) [Example 6i, 1-(2-Bromophenylsulfonyl)-3-[(6-R,S)-1,4-diaza[4.3. 0]bicyclonon-4-yl]indole], for which, in experiment [1], the inhibition at 0.1 µM was above 80%.
Still for that read-out and setting: the value for `O=S(=O)(c1ccc(Cl)cc1)n1cc(N2CCN3CCCC3C2)c2ccccc21` (racemic) [Example 6e, 1-(4-Chlorophenylsulfonyl)-3-[(6-R,S)-1,4-diaza[4.3. 0]bicyclonon-4-yl]indole] was above 80%; that for `Cc1ccc(S(=O)(=O)n2nc(N3CCN4CCCC4C3)c3ccccc32)cc1` (racemic) [Example 7a, 3-[(6-R,S)-1,4-Diaza[4.3. 0]bicyclonon-4-yl]-1-(4-methylphenylsulfonyl)indazole] was above 80%; that for `O=S(=O)(c1cc(Cl)ccc1Cl)n1cc(C2CCN3CCCC3C2)c2cc(F)ccc21` (single isomer, unassigned; isomer i) [Example 10j, 1-(2,5-Dichlorophenylsulfonyl)-5-Fluoro-3-[(7R or 7S)(8a-R,S)-octahydrohydro-7-indolizinyl]indole, Isomer I] was above 80%.
Same read-out and setting: the value for `Cc1ccc(S(=O)(=O)n2cc(N3CCN4CCCC4C3)c3ccccc32)cc1` (racemic) [Example 6k, 3-[(6-R,S)-1,4-Diaza[4.3. 0]bicyclonon-4-yl]-1-(4-methylphenylsulfonyl)indole] was above 80%; that for `Cc1cccc(-n2cc(C3CCN4CCCC4C3)c3cc(F)ccc32)c1` (racemic) [Example 9a, 5-Fluoro-3-[(7-R,S)(8a-R,S)-octahydro-7-indolizinyl]-1-(3-methylphenyl)indole] was above 80%; that for `O=S(=O)(c1ccc(F)cc1)n1cc(N2CCN3CCCC3C2)c2ccccc21` (racemic) [Example 6f, 3-[(6-R,S)-1,4-Diaza[4.3. 0]bicyclonon-4-yl]-1-(4-fluorophenylsulfonyl)indole] was above 80%.
